Assay results published in PubChem BioAssay (NCI).
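Where inhibition never reached the appropriate level, the endpoint shown equals the highest concentration tested. Otherwise, values were interpolated linearly from a five-concentration, 48-hour dose response in 96-well plates. The concentration for 50% growth inhibition is given as GI50. The concentration for full growth arrest is given as TGI.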

Legend:
Test in all cases: NCI tumour cell line growth inhibition, 48 h
OVCAR-4 ovarian = tested on: OVCAR-4 ovarian
COLO 205 colon = tested on: COLO 205 colon
NCI-H522 lung = tested on: NCI-H522 lung
SF-268 CNS = tested on: SF-268 CNS
NCI-H460 lung = tested on: NCI-H460 lung
MDA-MB-231 breast = tested on: MDA-MB-231 breast
MALME-3M melanoma = tested on: MALME-3M melanoma
HS 578T breast = tested on: HS 578T breast
A498 renal = tested on: A498 renal
NCI/ADR-RES ovarian = tested on: NCI/ADR-RES ovarian
RPMI-8226 leukemia = tested on: RPMI-8226 leukemia
T-47D breast = tested on: T-47D breast
KM12 colon = tested on: KM12 colon
HOP-62 NSCLC = tested on: HOP-62 NSCLC
OVCAR-5 ovarian = tested on: OVCAR-5 ovarian
LOX IMVI melanoma = tested on: LOX IMVI melanoma
NCI-H226 lung = tested on: NCI-H226 lung
MDA-MB-435 = tested on: MDA-MB-435
UO-31 renal = tested on: UO-31 renal
HCT-116 colon = tested on: HCT-116 colon
SNB-19 CNS = tested on: SNB-19 CNS
HT29 colon = tested on: HT29 colon
OVCAR-3 ovarian = tested on: OVCAR-3 ovarian
SR leukemia = tested on: SR leukemia
U251 CNS = tested on: U251 CNS
UACC-257 melanoma = tested on: UACC-257 melanoma
HOP-92 NSCLC = tested on: HOP-92 NSCLC
OVCAR-8 ovarian = tested on: OVCAR-8 ovarian
SK-MEL-28 melanoma = tested on: SK-MEL-28 melanoma
MOLT-4 leukemia = tested on: MOLT-4 leukemia
HL-60(TB) leukemia = tested on: HL-60(TB) leukemia
DU-145 prostate = tested on: DU-145 prostate
SF-295 CNS = tested on: SF-295 CNS
786-0 renal = tested on: 786-0 renal
SK-MEL-2 melanoma = tested on: SK-MEL-2 melanoma
SW-620 colon = tested on: SW-620 colon
MCF7 breast = tested on: MCF7 breast
SF-539 CNS = tested on: SF-539 CNS
NCI-H23 lung = tested on: NCI-H23 lung
HCT-15 colon = tested on: HCT-15 colon
MDA-MB-468 breast = tested on: MDA-MB-468 breast
UACC-62 melanoma = tested on: UACC-62 melanoma
SNB-75 CNS = tested on: SNB-75 CNS
CCRF-CEM leukemia = tested on: CCRF-CEM leukemia
ACHN renal = tested on: ACHN renal
K-562 leukemia = tested on: K-562 leukemia
SK-OV-3 ovarian = tested on: SK-OV-3 ovarian
TK-10 renal = tested on: TK-10 renal
PC-3 prostate = tested on: PC-3 prostate
CAKI-1 renal = tested on: CAKI-1 renal
M14 melanoma = tested on: M14 melanoma
A549 NSCLC = tested on: A549 NSCLC
BT-549 breast = tested on: BT-549 breast
EKVX NSCLC = tested on: EKVX NSCLC
RXF 393 renal = tested on: RXF 393 renal
SK-MEL-5 melanoma = tested on: SK-MEL-5 melanoma
IGROV1 ovarian = tested on: IGROV1 ovarian
SN12C renal = tested on: SN12C renal
HCC-2998 colon = tested on: HCC-2998 colon

## O=C(Nc1ccc(OCc2ccc(Cl)cc2)cc1)Nc1ccc(Cl)c(C(F)(F)F)c1
OVCAR-4 ovarian
  GI50: 2.37 µM
  TGI: 9.36 µM
COLO 205 colon
  GI50: 1.97 µM
  TGI: 4.23 µM
NCI-H522 lung
  GI50: 1.82 µM
  TGI: 5.28 µM
SF-268 CNS
  GI50: 3.18 µM
  TGI: 13.2 µM
NCI-H460 lung
  GI50: 1.47 µM
  TGI: 3.99 µM
MDA-MB-231 breast
  GI50: 2.45 µM
  TGI: 6.88 µM
MALME-3M melanoma
  GI50: 1.75 µM
  TGI: 4.51 µM
HS 578T breast
  GI50: 2.27 µM
  TGI: 6.7 µM
A498 renal
  GI50: 1.96 µM
  TGI: 5.21 µM
NCI/ADR-RES ovarian
  GI50: 1.74 µM
  TGI: 5.41 µM
RPMI-8226 leukemia
  GI50: 1.55 µM
  TGI: 13.5 µM
T-47D breast
  GI50: 2.06 µM
  TGI: 10.1 µM
KM12 colon
  GI50: 2.62 µM
  TGI: 9.32 µM
HOP-62 NSCLC
  GI50: 2.64 µM
  TGI: 8.18 µM
OVCAR-5 ovarian
  GI50: 3.01 µM
  TGI: 17.4 µM
LOX IMVI melanoma
  GI50: 1.85 µM
  TGI: 3.57 µM
NCI-H226 lung
  GI50: 2 µM
  TGI: 5.27 µM
MDA-MB-435
  GI50: 2.59 µM
  TGI: 8.51 µM
UO-31 renal
  GI50: 1.82 µM
  TGI: 6.73 µM
HCT-116 colon
  GI50: 1.87 µM
  TGI: 7.71 µM
SNB-19 CNS
  GI50: 2.45 µM
  TGI: 7.99 µM
HT29 colon
  GI50: 2.78 µM
  TGI: 10.2 µM
OVCAR-3 ovarian
  GI50: 1.98 µM
  TGI: 8.35 µM
SR leukemia
  GI50: 2.95 µM
  TGI: 15.7 µM
U251 CNS
  GI50: 1.92 µM
  TGI: 4.55 µM
UACC-257 melanoma
  GI50: 2.33 µM
  TGI: 5.96 µM
HOP-92 NSCLC
  GI50: 1.96 µM
  TGI: 5.37 µM
OVCAR-8 ovarian
  GI50: 2.32 µM
  TGI: 7.19 µM
SK-MEL-28 melanoma
  GI50: 2.84 µM
  TGI: 10.4 µM
MOLT-4 leukemia
  GI50: 3.02 µM
  TGI: 27.2 µM
HL-60(TB) leukemia
  GI50: 2.33 µM
  TGI: 7.07 µM
DU-145 prostate
  GI50: 2.83 µM
  TGI: 10.7 µM
SF-295 CNS
  GI50: 1.42 µM
  TGI: 3.7 µM
786-0 renal
  GI50: 4.09 µM
  TGI: 13.3 µM
SK-MEL-2 melanoma
  GI50: 2 µM
  TGI: 4.6 µM
SW-620 colon
  GI50: 2.56 µM
  TGI: 10.3 µM
MCF7 breast
  GI50: 1.95 µM
  TGI: 5.96 µM
SF-539 CNS
  GI50: 2.4 µM
  TGI: 5.98 µM
NCI-H23 lung
  GI50: 1.39 µM
  TGI: 3.83 µM
HCT-15 colon
  GI50: 1.87 µM
  TGI: 10.6 µM
MDA-MB-468 breast
  GI50: 1.54 µM
  TGI: 4.41 µM
UACC-62 melanoma
  GI50: 2.4 µM
  TGI: 10.6 µM
SNB-75 CNS
  GI50: 1.42 µM
  TGI: 5.45 µM
CCRF-CEM leukemia
  GI50: 3.05 µM
  TGI: 79.6 µM
ACHN renal
  GI50: 2.37 µM
  TGI: 7.62 µM
K-562 leukemia
  GI50: 1.72 µM
  TGI: 65.7 µM
SK-OV-3 ovarian
  GI50: 3.42 µM
  TGI: 11.6 µM
TK-10 renal
  GI50: 2.74 µM
  TGI: 9.69 µM
PC-3 prostate
  GI50: 1.19 µM
  TGI: 13.8 µM
CAKI-1 renal
  GI50: 2.31 µM
  TGI: 6.83 µM
M14 melanoma
  GI50: 2.8 µM
  TGI: 12.1 µM
A549 NSCLC
  GI50: 2.19 µM
  TGI: 8.07 µM
BT-549 breast
  GI50: 2.37 µM
  TGI: 5.63 µM
EKVX NSCLC
  GI50: 2.18 µM
  TGI: 5.95 µM
RXF 393 renal
  GI50: 2.89 µM
  TGI: 6.17 µM
SK-MEL-5 melanoma
  GI50: 1.75 µM
  TGI: 3.35 µM
IGROV1 ovarian
  GI50: 3.25 µM
  TGI: 13.5 µM
SN12C renal
  GI50: 2.03 µM
  TGI: 6.46 µM
HCC-2998 colon
  GI50: 2.89 µM
  TGI: 11.7 µM

## C[C@H]1[C@H](C)CC[C@]2(COC(=O)CCC(=O)NCC#CCN3CCNCC3)CC[C@]3(C)C(=CC[C@@H]4[C@@]5(C)CCCNC(C)(C)[C@@H]5CC[C@]43C)[C@H]12
OVCAR-4 ovarian
  GI50: 25.1 µM
  TGI: 72.9 µM
COLO 205 colon
  GI50: 18.3 µM
  TGI: 36 µM
NCI-H522 lung
  GI50: 16.4 µM
  TGI: 33.7 µM
SF-268 CNS
  GI50: 17.9 µM
  TGI: 40.1 µM
NCI-H460 lung
  GI50: 16.5 µM
  TGI: 30.1 µM
MDA-MB-231 breast
  GI50: 18.2 µM
  TGI: 32.1 µM
MALME-3M melanoma
  GI50: 15.8 µM
  TGI: 29.2 µM
HS 578T breast
  GI50: 20.9 µM
  TGI: 55.7 µM
A498 renal
  GI50: 15.1 µM
  TGI: 28.3 µM
NCI/ADR-RES ovarian
  GI50: 17.4 µM
  TGI: 34.6 µM
RPMI-8226 leukemia
  GI50: 17 µM
  TGI: 94.5 µM
T-47D breast
  GI50: 19 µM
  TGI: 44.4 µM
KM12 colon
  GI50: 17.5 µM
  TGI: 34 µM
HOP-62 NSCLC
  GI50: 18.9 µM
  TGI: 36.8 µM
OVCAR-5 ovarian
  GI50: 17.2 µM
  TGI: 30.9 µM
LOX IMVI melanoma
  GI50: 20.5 µM
  TGI: 44.7 µM
NCI-H226 lung
  GI50: 27.3 µM
  TGI: > 100 µM
MDA-MB-435
  GI50: 14.1 µM
  TGI: 27.5 µM
UO-31 renal
  GI50: 12 µM
  TGI: 24.3 µM
HCT-116 colon
  GI50: 11.5 µM
  TGI: 23.6 µM
SNB-19 CNS
  GI50: 15.7 µM
  TGI: 29.1 µM
HT29 colon
  GI50: 12.3 µM
  TGI: 26.1 µM
OVCAR-3 ovarian
  GI50: 14.1 µM
  TGI: 27.6 µM
SR leukemia
  GI50: 15.4 µM
  TGI: 61.5 µM
U251 CNS
  GI50: 16.9 µM
  TGI: 32 µM
UACC-257 melanoma
  GI50: 16.5 µM
  TGI: 33.5 µM
HOP-92 NSCLC
  GI50: 13.2 µM
  TGI: 41.7 µM
OVCAR-8 ovarian
  GI50: 19 µM
  TGI: 37.9 µM
SK-MEL-28 melanoma
  GI50: 16.4 µM
  TGI: 30 µM
MOLT-4 leukemia
  GI50: 9.96 µM
  TGI: 32.9 µM
HL-60(TB) leukemia
  GI50: 4.98 µM
  TGI: 27.1 µM
DU-145 prostate
  GI50: 17.5 µM
  TGI: 31.2 µM
SF-295 CNS
  GI50: 22.5 µM
  TGI: 57.2 µM
786-0 renal
  GI50: 15 µM
  TGI: 34.6 µM
SK-MEL-2 melanoma
  GI50: 17.7 µM
  TGI: 33.4 µM
SW-620 colon
  GI50: 15.5 µM
  TGI: 28.9 µM
MCF7 breast
  GI50: 12.7 µM
  TGI: 25.3 µM
SF-539 CNS
  GI50: 13.9 µM
  TGI: 26.8 µM
NCI-H23 lung
  GI50: 16.2 µM
  TGI: 30.7 µM
HCT-15 colon
  GI50: 14.5 µM
  TGI: 27.6 µM
MDA-MB-468 breast
  GI50: 10.7 µM
  TGI: 25.9 µM
UACC-62 melanoma
  GI50: 14 µM
  TGI: 27.2 µM
SNB-75 CNS
  GI50: 13.3 µM
  TGI: 37.8 µM
CCRF-CEM leukemia
  GI50: 16.8 µM
  TGI: 48.2 µM
ACHN renal
  GI50: 16.4 µM
  TGI: 30 µM
K-562 leukemia
  GI50: 6.02 µM
  TGI: 20.5 µM
SK-OV-3 ovarian
  GI50: 19.4 µM
  TGI: 44.7 µM
TK-10 renal
  GI50: 18.9 µM
  TGI: 37.4 µM
PC-3 prostate
  GI50: 11 µM
  TGI: 27.3 µM
CAKI-1 renal
  GI50: 14.7 µM
  TGI: 28.4 µM
M14 melanoma
  GI50: 15.7 µM
  TGI: 30.9 µM
A549 NSCLC
  GI50: 14.9 µM
  TGI: 28.1 µM
BT-549 breast
  GI50: 16.2 µM
  TGI: 32.7 µM
EKVX NSCLC
  GI50: 15.9 µM
  TGI: 32.2 µM
RXF 393 renal
  GI50: 18.2 µM
  TGI: 45.6 µM
SK-MEL-5 melanoma
  GI50: 14.2 µM
  TGI: 31.9 µM
IGROV1 ovarian
  GI50: 14.3 µM
  TGI: 27.3 µM
SN12C renal
  GI50: 14.7 µM
  TGI: 28.8 µM
HCC-2998 colon
  GI50: 15.1 µM
  TGI: 29.2 µM
